Measured values: US20120263739A1, “ANTI INTEGRIN ANTIBODIES LINKED TO NANOPARTICLES LOADED WITH CHEMOTHERAPEUTIC AGENTS” (MERCK PATENT GMBH, priority 2009, published 2012)
≈ marks a conversion by molar mass, not a printed value. Each block holds one compound with its values, some of them ahead of it.

Experiments:
[1] = system: αvβ3-positive M21 melanoma cells; assay: MTT cell viability assay; settings: for IC-50 M21: MTT, reduce cell viability by 50%, M21 cells
Description: (§5) Cell viability was assessed using the 3-(4,5-dimethylthiazol-2-yl)-2,5-diphenyltetrazolium bromide (MTT) dye reduction assay [27] modified as described before [28].

αv-negative M21L cells = assay: MTT cell viability assay; settings: for IC-50 M21L: MTT, reduce cell viability by 50%, M21L cells
Description: as §5

M21 cells = assay: Cellular uptake and intracellular distribution, confocal laser scanning microscopy; format: cell-based; settings: 10 ng/μl, 4 h at 37° C., CLSM
Description: Cellular uptake and intracellular distribution: The cellular uptake and intracellular distribution of these nanoparticulate formulations are shown by confocal laser scanning microscopy (CLSM). αvβ3 integrin-positive M21 melanoma cells are incubated with NP-Dox-DI17E6, with NP-Dox-IgG, or free Doxorubicin (FIG. 5). […] The overlay of the different fluorescence channels (FIG. 6B-D) verifies the intracellular uptake of NP-Dox-DI17E6 (FIG. 6A).
FIG. 5: Cellular uptake and intracellular distribution of nanoparticles studied by confocal laser scanning microscopy (CLSM). M21 cells were cultured on glass slides and treated with 10 ng/μl of the different nanoparticle formulations (referred to DI17E6 concentration or equivalent amount of control nanoparticles) for 4 h at 37° C. The green autofluorescence of the nanoparticles was used for detection and the red autofluorescence of doxorubicin. The cell membranes were stained with Concanavalin A AlexaFluor 350 (blue). Pictures were taken within inner sections of the cells. […]
Cellular uptake and intracellular distribution of the nanoparticles were studied by confocal laser scanning microscopy. […] (concentrations are calculated referred to DI17E6 or equivalent NP amounts as described in 2.5). […] Nanoparticles were detected at 488/520 nm. Doxorubicin was detected by red fluorescence at 488/590 nm.

[2] = system: αvβ3 positive melanoma cells M21 on vitronectin; assay: Kinetic of cell detachment, transmitted light time lapse microscopy; format: cell-based; settings: total incubation time 1-2 d
Description: A parallel detachment kinetic study of the different nanoparticulate formulations or free doxorubicin confirms the cell detachment assay. In this study detachment is observed by transmitted light time lapse microscopy over a period of 1-2 d. Pictures were done every 7 minutes. The detachment time of the cells is measured.
For the determination of cell detachment kinetics, cells were seeded in a vitronectin coated multiwell chamber and incubated with the different nanoparticulate formulations or free doxorubicin in a humidified, CO2-aerated climate chamber at 37° C. Detachment was observed by transmitted light time lapse microscopy over a period of 1-2 d. Pictures were done every 7 minutes. The detachment of the cells was analyzed by manual evaluation of the data.

[3] = Antibody bound to nanoparticle surface (SEC of supernatant); format: physicochemical
Description: For the thiolation step of the antibodies, DI17E6 or IgG were dissolved in phosphate buffer pH 8.0 at a concentration of 1.0 mg/ml. For the introduction of thiol groups DI17E6 or IgG, respectively, were incubated with a 50 fold molar excess of 2-iminothiolane solution (c=1.14 mg/ml; 40.2 μl) for 2 h as previously described by Steinhauser et al. (2006). The antibodies were purified by size exclusion chromatography (SEC, D-Salt™ Dextran Desalting column). The resulting solutions contained thiolated antibody (DI17E6 or IgG, respectively) at a concentration of about 500 μg/ml. For the coupling reaction 1.0 ml of the sulfhydryl-reactive nanoparticle suspension was incubated with 1.0 ml of the thiolated DI17E6 or IgG, respectively, to achieve a covalent linkage between antibody and the nanoparticle system. For the preparation of samples with adsorptively attached antibody, 1.0 ml of the mPEG5000-SPA modified nanoparticles were incubated with 1.0 ml of thiolated DI17E6 or IgG, respectively. […] To determine unbound antibody the resulting supernatants were collected and analyzed by size exclusion chromatography (SEC) as described above. The amount of antibody bound to the nanoparticle surface was calculated as difference between the amount of antibody obtained after thiolation and purification and the amount of antibody determined in the supernatant obtained after the conjugation step.

[4] = Zetapotential by Laser Doppler microelectrophoresis; format: physicochemical; settings: mean ± SD; n = 3; 100% crosslinking
Description: (§1) Nanoparticles were analyzed with regard to particle diameter and polydispersity by photon correlation spectroscopy (PCS) using a Malvern Zetasizer 3000HSA (Malvern Instruments Ltd., Malvern, UK). The zetapotential was measured with the same instrument by Laser Doppler microelectrophoresis. Prior to both measurements the samples were diluted with filtered (0.22 μm) purified water. Particle content was determined by microgravimetry. For this purpose 50.0 μl of the nanoparticle suspension was pipetted into an aluminium weighing dish and dried for 2 h at 80° C. After 30 min of storage in an exsiccator the samples were weighed on a micro balance (Sartorius, Germany).

[5] = Particle diameter and polydispersity by photon correlation spectroscopy; format: physicochemical; settings: mean ± SD; n = 3; 100% crosslinking
Description: as §1

[6] = system: αvβ3 integrin positive melanoma cells M21; assay: Cell detachment from vitronectin coated surface; format: cell-based; settings: 4 ng/μl, 4 h at 37° C.
Description: FIG. 9: Cell detachment from vitronectin coated surface. For cell detachment assay, 96-well ELISA plates were coated with vitronectin and cells were allowed to attach and spread for 1 h. Then, 4 ng/μl of free DI17E6 or the different unloaded or doxorubicin nanoparticulate formulations were added and the plates were incubated for additional 4 h at 37° C. to induce detachment (concentrations are calculated referred to DI17E6 or equivalent NP amounts). Detached cells were removed and remaining attached cells were stained with CyQUANT GR and counted against untreated control as described in the manufacturer's instructions manual. (Internal control of each experiment n=10, one representative experiment out of 9 independent experiments is shown.)
For cell detachment assays, 96-well ELISA plates were coated with vitronectin as described above. After blocking, cells were allowed to attach and spread for 1 h in cell adhesion medium. Then, 4 ng/μl or 10 ng/μl of either free DI17E6 or the different nanoparticulate formulations (referred to free mAb) were added and the plates were incubated for additional 4 h at 37° C. to induce detachment. Subsequently, plates were washed and processed as for cell adhesion assay. Specific inhibition of attachment or induction of detachment were determined relative to vitronectin-coated surfaces blocked with BSA.

[7] = Particle content by microgravimetry; format: physicochemical; settings: mean ± SD; n = 3; 100% crosslinking
Description: as §1

[8] = Doxorubicin loading (HPLC of non-entrapped drug); format: physicochemical; settings: mean ± SD, n = 3
Description: (5) Preparation of doxorubicin-loaded nanoparticles 160 mg HSA were dissolved in 4 ml purified water and the solution was filtered through a 0.22 μm cellulose acetate membrane filter (Schleicher & Schuell, Dassel, Germany). An aliquot (500 μl) of this solution was added to 200 μl of a 0.5% (w/v) aqueous stock solution of doxorubicin. To this mixture, 300 μl of purified water were added. In order to adsorb doxorubicin to human serum albumin in solution, the mixture was incubated under stirring (550 rpm) for 2 h at room temperature. For the preparation of nanoparticles by desolvation, 3 ml ethanol (96%, v/v) were added continuously (1 ml/min) with a tubing pump (Ismatec IPN, Glattbrugg, Switzerland). After protein desolvation, an aliquot of 11.75 μl 8% glutaraldehyde solution was added to induce particle crosslinking (corresponding to 100% stoichiometric protein crosslinking). […] The nanoparticle content was determined by gravimetry. […] The content of entrapped doxorubicin was calculated from the difference between total doxorubicin and unbound drug. For the quantification of doxorubicin, a Merck Hitachi D7000 HPLC system equipped with a LiChroCART® 250-4 LiChrospher®-100 RP-18 column (Merck, Darmstadt, Germany) was used. […] Doxorubicin was quantified by UV (250 nm) and fluorescence detection (excitation 560 nm, emission 650 nm).

[9] = system: αv-defective melanoma cells M21L; assay: Cellular binding of nanoparticulate formulations, flow cytometry (FACS); format: cell-based; settings: 2 ng/μl, 4 h at 37° C.
Description: (§2) Cellular binding: αvβ3 integrin-positive melanoma cells M21 and αv-negative melanoma cells M21L are incubated with DI17E6-coupled nanoparticles (NP-DI17E6) or nanoparticles coupled to an unspecific control mAb IgG (NP-IgG). […] Both nanoparticle preparations show low binding to M21L cells (FIG. 4D).
(§3) FIG. 4: Cellular binding of unloaded and doxorubicin loaded nanoparticulate formulations. αvβ3 integrin positive melanoma cells M21 (A and C) and αv-defective melanoma cells M21L (B and D) were treated with 2 ng/μl of the different unloaded (A and B) or doxorubicin loaded (C and D) nanoparticulate formulations for 4 h at 37° C. (concentrations are calculated referred to DI17E6 or equivalent NP amounts). Flow cytometry (FACS) analysis was performed to quantify their cellular binding. The data is shown as histogram of the FL1-H-channel (autofluorescence of the nanoparticles). Green: NP-DI17E6 and NP-Dox-DI17E6 respectively, red: NP-IgG and NP-Dox-IgG respectively, blue: untreated control. […]
(§4) M21 or M21L cells were cultured in 24-well plates (Greiner, Frickenhausen, Germany) and treated with the different nanoparticle formulations for 4 h at 37° C. […] Control nanoparticles without DI17E6 modification were used in equivalent nanoparticle quantities. […] Nanoparticles could be detected at 488/520 nm.

[10] = system: αvβ3 integrin positive melanoma cells M21; assay: as above; format: cell-based; settings: 2 ng/μl, 4 h at 37° C.
Description: as §2, §3, §4

[11] = target: alpha-v beta-3 integrin on M21 melanoma cells (UniProt P06756); assay: cell-based or functional assay
[12] = system: αvβ3 integrin positive melanoma cells M21; assay: Cell attachment on vitronectin coated surface; format: cell-based; settings: 2 ng/μl, 1 h
Description: FIG. 8: Cell attachment on vitronectin coated surface. 2 ng/μl of free DI17E6 or the different nanoparticulate formulations were incubated together with the αvβ3 integrin positive melanoma cells M21 on vitronectin coated ELISA plates (concentrations are calculated referred to DI17E6 or equivalent NP amounts). After 1 h of incubation non-adherent cells were removed. Remaining attached cells were stained with CyQUANT GR and counted against untreated control as described in the manufacturer's instructions manual. (Internal control of each experiment n=10, one representative experiment out of 3 independent experiments is shown.)
αvβ3 integrin positive melanoma cells M21 were grown on vitronectin (MoBiTec, Göttingen, Germany) coated ELISA plates (Nunc, Wiesbaden, Germany). Therefore, ELISA 96-well plates were coated with 1 μg/ml vitronectin for 1 h at 37° C. Plates were blocked with 1% heat inactivated BSA (PAA, Cölbe, Germany) and incubated with either 2 ng/μl of free DI17E6 or the different nanoparticulate formulations (referred to free mAb) together with the cells in cell adhesion medium (RPMI 1640 with 2 mM L-glutamine supplemented with 1% BSA). […] Remaining attached cells were stained with CyQUANT GR (Invitrogen, Karlsruhe) and counted against untreated control in a microtiter ELISA reader as described in the manufacturer instructions manual.

alpha-v beta-3 integrin on M21 melanoma cells, sequence (P06756 31-1048, chain 1 of 2): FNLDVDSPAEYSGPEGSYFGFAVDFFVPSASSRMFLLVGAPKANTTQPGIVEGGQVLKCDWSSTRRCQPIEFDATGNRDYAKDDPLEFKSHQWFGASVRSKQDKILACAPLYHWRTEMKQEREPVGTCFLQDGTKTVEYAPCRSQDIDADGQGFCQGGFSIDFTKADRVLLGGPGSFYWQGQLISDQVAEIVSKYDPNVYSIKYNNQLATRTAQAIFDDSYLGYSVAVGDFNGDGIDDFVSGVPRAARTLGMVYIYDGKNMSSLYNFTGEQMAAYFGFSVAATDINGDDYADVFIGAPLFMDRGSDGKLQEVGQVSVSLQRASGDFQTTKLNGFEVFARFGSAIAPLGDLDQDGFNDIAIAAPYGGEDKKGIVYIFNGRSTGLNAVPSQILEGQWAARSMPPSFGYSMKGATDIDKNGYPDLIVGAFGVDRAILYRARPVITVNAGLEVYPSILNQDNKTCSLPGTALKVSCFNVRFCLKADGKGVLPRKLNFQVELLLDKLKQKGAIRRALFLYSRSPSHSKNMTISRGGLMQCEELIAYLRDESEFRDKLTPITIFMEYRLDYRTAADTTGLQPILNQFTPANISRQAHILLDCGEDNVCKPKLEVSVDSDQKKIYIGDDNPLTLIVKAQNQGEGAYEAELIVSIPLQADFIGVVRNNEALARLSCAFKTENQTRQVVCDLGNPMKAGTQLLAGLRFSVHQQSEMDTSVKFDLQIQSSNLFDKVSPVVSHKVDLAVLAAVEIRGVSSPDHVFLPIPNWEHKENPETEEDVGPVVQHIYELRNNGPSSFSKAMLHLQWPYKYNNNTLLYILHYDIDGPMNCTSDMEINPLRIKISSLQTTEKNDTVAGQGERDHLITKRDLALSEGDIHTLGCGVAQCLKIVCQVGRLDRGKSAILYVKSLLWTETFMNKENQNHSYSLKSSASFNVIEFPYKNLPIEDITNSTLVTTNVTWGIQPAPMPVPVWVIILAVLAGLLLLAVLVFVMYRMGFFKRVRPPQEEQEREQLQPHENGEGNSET
alpha-v beta-3 integrin on M21 melanoma cells, sequence (P05106 27-788, chain 2 of 2, further chain): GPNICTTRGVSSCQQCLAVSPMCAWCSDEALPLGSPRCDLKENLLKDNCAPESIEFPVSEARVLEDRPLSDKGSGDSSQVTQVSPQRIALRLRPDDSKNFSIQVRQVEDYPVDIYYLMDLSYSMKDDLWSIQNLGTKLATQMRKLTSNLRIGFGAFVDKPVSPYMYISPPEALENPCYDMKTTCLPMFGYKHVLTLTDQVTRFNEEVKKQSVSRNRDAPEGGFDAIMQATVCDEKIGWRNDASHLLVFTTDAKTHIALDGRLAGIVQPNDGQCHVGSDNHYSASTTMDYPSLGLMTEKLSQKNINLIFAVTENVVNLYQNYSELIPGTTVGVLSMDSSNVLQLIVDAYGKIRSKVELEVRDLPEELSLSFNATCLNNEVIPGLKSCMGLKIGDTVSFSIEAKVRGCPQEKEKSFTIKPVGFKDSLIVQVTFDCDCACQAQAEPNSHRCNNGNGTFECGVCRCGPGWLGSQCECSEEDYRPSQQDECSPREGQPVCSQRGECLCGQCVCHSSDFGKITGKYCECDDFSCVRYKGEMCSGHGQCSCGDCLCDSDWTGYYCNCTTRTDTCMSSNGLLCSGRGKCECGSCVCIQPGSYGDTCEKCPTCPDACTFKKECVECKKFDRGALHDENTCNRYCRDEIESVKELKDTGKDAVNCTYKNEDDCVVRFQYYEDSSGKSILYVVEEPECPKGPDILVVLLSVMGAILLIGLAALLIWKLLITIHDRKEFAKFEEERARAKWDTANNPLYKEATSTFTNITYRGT

IC50 ([1]; Homo sapiens, M21, read-out: IC-50 M21): 0.0575 ± 0.0037 µg/mL (≈ 0.106 µM)
Compound: COc1cccc2c1C(=O)c1c(O)c3c(c(O)c1C2=O)C[C@@](O)(C(=O)CO)C[C@@H]3O[C@H]1C[C@H](N)[C@H](O)[C@H](C)O1 [free doxorubicin, doxorubicin, reference compound]
IC50 (αv-negative M21L cells; read-out: IC-50 M21L): 0.0707 ± 0.0008 µg/mL (≈ 0.13 µM)
Cellular uptake and intracellular distribution (M21 cells): Red doxorubicin fluorescence can be detected
Cell death [h after incubation] [2]: 17 h

Compound: NP-Dox-DI17E6
IC-50 M21 [1]: 8.0 ± 0.2 ng/mL
IC-50 M21L (αv-negative M21L cells): >100 ng/mL
Covalent linkage of antibody to the particle surface ([3]; covalent linkage): 11-20 μg antibody/mg nanoparticle
Antibody binding efficiency ([3]; mean ± SD, n = 3, antibody per mg nanoparticle): 15.84 ± 4.07 µg/mg
Cellular uptake and intracellular distribution (M21 cells): reaches the inner part of the cells
Zetapotential [4]: −40.3 ± 3.1 mV
Particle diameter [5]: 404.9 ± 27.0 nm
Polydispersity [5]: 0.040 ± 0.045
Cell detachment from vitronectin coated surfaces [6]: same detachment efficiency
Particle content [7]: 14.4 ± 1.2 mg/mL
Drug loading [8]: 56.7 ± 2.9 µg/mg
Cellular binding to M21L cells [9]: low binding
Cellular binding to M21 cells [10]: high binding

Compound: NP-Dox-DI17E6 (doxorubicin-loaded HSA nanoparticles with DI17E6 covalently coupled on the surface)
IC-50 of MTT cell viability assay on M21 cells (referred to doxorubicin) [11]: 8 ng/mL

Compound: free DI17E6: deimmunized version of monoclonal mouse antibody 17E6, directed against αv integrins (SEQ ID No. 1 and 2)
Inhibition of cell attachment to vitronectin coated surfaces [12]: inhibits the attachment of the M21 cells to vitronectin coated surfaces
IC-50 M21 [1]: >100 ng/mL
IC-50 M21L (αv-negative M21L cells): >100 ng/mL
Cell detachment from vitronectin coated surfaces [6]: cell detachment of αvβ3 positive melanoma cells M21 from vitronectin coated surfaces is also possible
